Experimental data: ChEMBL document CHEMBL1201862, “PubChem BioAssay data set” (2004)
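1) Cells in 96-well plates. 2) Compound, 48 h, 5 concentrations. 3) Linear interpolation between surrounding doses. 4) Unreached endpoint = highest concentration. GI50: concentration for 50% inhibition of growth.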 Activity calls are given as the source filed them. No stated cut-off is given here; in the data, active = GI50 up to about 1.1 µM and inactive = higher.

How the values were obtained:
Experiment in all cases: DTP human tumour cell line panel, 48 h
786-0 = tested on: 786-0
PC-3 = tested on: PC-3
RXF 393 = tested on: RXF 393
U-251 = tested on: U-251
K562 = tested on: K562
KM12 = tested on: KM12
SF-268 = tested on: SF-268
OVCAR-5 = tested on: OVCAR-5
HL-60 = tested on: HL-60
SK-OV-3 = tested on: SK-OV-3
A549 = tested on: A549
CAKI-1 = tested on: CAKI-1
HCC 2998 = tested on: HCC 2998
T47D = tested on: T47D
HCT-15 = tested on: HCT-15
OVCAR-8 = tested on: OVCAR-8
Hs-578T = tested on: Hs-578T
NCI-H226 = tested on: NCI-H226
BT-549 = tested on: BT-549
HT-29 = tested on: HT-29
LOX IMVI = tested on: LOX IMVI
CCRF-CEM = tested on: CCRF-CEM
SF-539 = tested on: SF-539
SW-620 = tested on: SW-620
Malme-3M = tested on: Malme-3M
MOLT-4 = tested on: MOLT-4
SK-MEL-2 = tested on: SK-MEL-2
SR = tested on: SR
NCI-H460 = tested on: NCI-H460
DU-145 = tested on: DU-145
UACC-62 = tested on: UACC-62
A498 = tested on: A498
RPMI-8226 = tested on: RPMI-8226
MDA-MB-435 = tested on: MDA-MB-435
SNB-19 = tested on: SNB-19
HOP-92 = tested on: HOP-92
TK-10 = tested on: TK-10
EKVX = tested on: EKVX
M14 = tested on: M14
SK-MEL-5 = tested on: SK-MEL-5
NCI/ADR-RES = tested on: NCI/ADR-RES
MDA-MB-231 = tested on: MDA-MB-231
OVCAR-4 = tested on: OVCAR-4
ACHN = tested on: ACHN
COLO 205 = tested on: COLO 205
OVCAR-3 = tested on: OVCAR-3
SNB-75 = tested on: SNB-75
HCT-116 = tested on: HCT-116
NCI-H23 = tested on: NCI-H23
UO-31 = tested on: UO-31
HOP-62 = tested on: HOP-62
UACC-257 = tested on: UACC-257
SN12C = tested on: SN12C
MDA-N = tested on: MDA-N
MCF7 = tested on: MCF7
SF-295 = tested on: SF-295
SK-MEL-28 = tested on: SK-MEL-28
IGROV-1 = tested on: IGROV-1
NCI-H522 = tested on: NCI-H522

Measured: GI50

CN(C)c1nc(NC23CC4CC(CC(C4)C2)C3)nc(N(C)C)n1
5.15 µM: HCT-15
inactive: 786-0 15.7 µM | PC-3 8.32 µM | RXF 393 3.48 µM | U-251 9.1 µM | K562 2.81 µM | KM12 5.66 µM | SF-268 > 42.1 µM | OVCAR-5 10.2 µM | HL-60 3.61 µM | SK-OV-3 > 26.1 µM | A549 8.59 µM | CAKI-1 37.6 µM | HCC 2998 > 27.5 µM | T47D 7.29 µM | OVCAR-8 > 53.3 µM | Hs-578T 16.3 µM | NCI-H226 20.4 µM | BT-549 21.4 µM | HT-29 26.6 µM | LOX IMVI 3.36 µM | CCRF-CEM 5.06 µM | SF-539 21.8 µM | SW-620 12.3 µM | Malme-3M 33.1 µM | MOLT-4 10 µM | SK-MEL-2 20.1 µM | SR 14.5 µM | NCI-H460 16.6 µM | DU-145 16.4 µM | UACC-62 25.8 µM | A498 > 54 µM | RPMI-8226 3.58 µM | MDA-MB-435 21.4 µM | SNB-19 14.9 µM | HOP-92 10.6 µM | TK-10 35.6 µM | EKVX 11.3 µM | M14 13.1 µM | SK-MEL-5 11.1 µM | NCI/ADR-RES 23.4 µM | MDA-MB-231 9.98 µM | OVCAR-4 > 100 µM | ACHN 22.3 µM | COLO 205 11.7 µM | OVCAR-3 17.2 µM | SNB-75 7.35 µM | HCT-116 20.7 µM | NCI-H23 9.33 µM | UO-31 31.4 µM | HOP-62 15.7 µM | UACC-257 31.3 µM | SN12C 27.2 µM | MDA-N 8.67 µM | MCF7 8.15 µM | SF-295 6.28 µM | SK-MEL-28 22 µM

N#CC1Cc2cc3c(cc21)OCO3 (stereo unspecified)
> 100 µM: HCT-15
inactive: 786-0 > 100 µM | PC-3 > 100 µM | U-251 > 100 µM | K562 > 100 µM | KM12 > 100 µM | OVCAR-5 > 100 µM | A549 > 100 µM | CAKI-1 > 100 µM | HCC 2998 > 100 µM | T47D > 100 µM | OVCAR-8 > 100 µM | Hs-578T > 100 µM | NCI-H226 > 100 µM | BT-549 > 100 µM | HT-29 > 100 µM | LOX IMVI > 100 µM | CCRF-CEM > 100 µM | SF-539 > 100 µM | SW-620 > 100 µM | Malme-3M > 100 µM | MOLT-4 > 100 µM | SK-MEL-2 > 100 µM | SR > 100 µM | NCI-H460 > 100 µM | DU-145 > 100 µM | UACC-62 > 100 µM | A498 > 100 µM | MDA-MB-435 > 100 µM | SNB-19 > 100 µM | HOP-92 > 100 µM | TK-10 > 100 µM | EKVX > 100 µM | M14 > 100 µM | SK-MEL-5 > 100 µM | NCI/ADR-RES > 100 µM | MDA-MB-231 > 100 µM | IGROV-1 > 100 µM | OVCAR-4 > 100 µM | ACHN > 100 µM | COLO 205 > 100 µM | OVCAR-3 > 100 µM | SNB-75 > 100 µM | HCT-116 > 100 µM | NCI-H23 > 100 µM | UO-31 > 100 µM | HOP-62 > 100 µM | UACC-257 > 100 µM | SN12C > 100 µM | MDA-N > 100 µM | MCF7 > 100 µM | SF-295 > 100 µM | SK-MEL-28 > 100 µM

C=CCn1cnc2c(O)nc(Nc3ccccc3)nc21
> 100 µM: HCT-15
inactive: 786-0 > 100 µM | PC-3 > 100 µM | U-251 > 100 µM | KM12 > 100 µM | SF-268 > 100 µM | OVCAR-5 > 100 µM | HL-60 > 100 µM | SK-OV-3 > 100 µM | A549 > 100 µM | CAKI-1 > 100 µM | HCC 2998 > 100 µM | T47D > 100 µM | OVCAR-8 > 100 µM | Hs-578T > 100 µM | NCI-H226 > 100 µM | NCI-H522 > 100 µM | BT-549 > 100 µM | HT-29 > 100 µM | LOX IMVI > 100 µM | CCRF-CEM > 100 µM | SF-539 > 100 µM | SW-620 > 100 µM | Malme-3M > 100 µM | MOLT-4 12.8 µM | SK-MEL-2 > 100 µM | SR > 100 µM | NCI-H460 > 100 µM | DU-145 > 100 µM | UACC-62 > 100 µM | A498 > 100 µM | RPMI-8226 > 100 µM | MDA-MB-435 > 100 µM | SNB-19 > 100 µM | HOP-92 > 100 µM | TK-10 > 100 µM | EKVX > 100 µM | M14 > 100 µM | SK-MEL-5 > 100 µM | NCI/ADR-RES > 100 µM | MDA-MB-231 > 100 µM | IGROV-1 > 100 µM | OVCAR-4 > 100 µM | ACHN > 100 µM | COLO 205 > 100 µM | OVCAR-3 > 100 µM | SNB-75 > 100 µM | HCT-116 > 100 µM | UO-31 50.5 µM | HOP-62 > 100 µM | UACC-257 > 100 µM | SN12C > 100 µM | MDA-N > 100 µM | MCF7 > 100 µM | SF-295 > 100 µM | SK-MEL-28 > 100 µM
